{"source": "patent US11584712B2", "about": "“Alkylamine-substituted perthiocarbamates as dual precursors to hydropersulfide and carbonyl sulfide” (The Johns Hopkins University, priority 2020, dated 2023)", "key": {"[1]": {"test": "RSSH generation and quantification of cyclic ureas by UPLC-MS with HPE-IAM or NEM trap", "type": "physicochemical", "conditions": "precursor 10 μM, pH 7.4 ammonium bicarbonate buffer; for yield of cyclic urea byproduct: HPE-IAM 500 μM (50 equiv.), 37° C.; for cyclic urea byproduct formation: HPE-IAM 500 μM, 37° C. (7a 15 min, 7c 7 h)", "description": "Precursor 1a was dissolved in DMSO to afford a 1 mM stock solution. Similarly, HPE-IAM and N-ethyl maleimide (NEM) were independently dissolved in DMSO to obtain 50 mM stock solutions. To a 20 mL scintillation vial, HPE-IAM or NEM (30 μL, 50 mM) was added in pH 7.4 ammonium bicarbonate buffer (2.94 mL) containing the DTPA (100 μM). The resulting solution was pre-incubated at 37° C. for 10 min. Precursor 1a (30 μL, 1 mM) was then added into the mixture and incubated for 15 min at 37° C. An aliquot of the reaction mixture (500 μL) was withdrawn, 4-hydroxyphenylacetamide (10 μM) was added as internal standard, and analyzed using UPLC-MS as follows: Mobile phase: 0-1 min 90% water+0% ACN+10% formic acid (0.1%); 1-7.5 min gradient up to 10% water+80% ACN+10% formic acid (0.1%); 7.5-8.4 min 10% water+80% ACN+10% formic acid (0.1%); 8.4-8.5 min gradient up to 90% water+0% ACN+10% formic acid (0.1%), 8.5-10 min 90% water+0% ACN+10% formic acid (0.1%). Flow rate=0.3 mL/min. […] These studies were conducted at least in triplicate and representative spectra are presented.\nPrecursors 7a-d (10 μM) were independently incubated with HPE-IAM (500 μM) in pH 7.4 ammonium bicarbonate buffer (50 mM) containing DTPA (100 μM) at 37° C. The reaction mixture (500 μL) was analyzed using UPLC-MS. To quantify 2a-d generated from these precursors, a calibration curve of each individual cyclic urea with known concentrations was independently generated.\nPrecursor 1a was dissolved in DMSO to afford a 1 mM stock solution. Similarly, HPE-IAM was dissolved in DMSO to obtain a 50 mM stock solution. To a 20 mL scintillation vial, HPE-IAM (30 μL, 50 mM) was added in pH 7.4 ammonium bicarbonate buffer (2.94 mL) containing the DTPA (100 μM). The resulting solution was pre-incubated at 37° C. for 10 min. Precursor 1a (30 μL, 1 mM) was then added into the mixture and incubated for 15 min at 37° C. An aliquot of the reaction mixture (500 μL) was withdrawn and analyzed using UPLC-MS as follows: Mobile phase: 0-1 min 90% water+0% ACN+10% formic acid (0.1%); 1-7.5 min gradient up to 10% water+80% ACN+10% formic acid (0.1%); 7.5-8.4 min 10% water+80% ACN+10% formic acid (0.1%); 8.4-8.5 min gradient up to 90% water+0% ACN+10% formic acid (0.1%), 8.5-10 min 90% water+0% ACN+10% formic acid (0.1%). Flow rate=0.3 mL/min. The mass signals for product of RSSH trapping with HPE-IAM were obtained via deconvolution using MassLynx 4.1 software. These studies were conducted at least in triplicate and representative spectra are presented.\nPrecursors 7a-d (10 μM) were independently incubated with HPE-IAM (500 μM) in pH 7.4 ammonium bicarbonate buffer (50 mM) containing DTPA (100 μM) at 37° C. This reaction mixture was analyzed by UPLC-MS as follows: Mobile phase: 0-1 min 90% water+0% ACN+10% formic acid (0.1%); 1-7.5 min gradient up to 10% water+80% ACN+10% formic acid (0.1%); 7.5-8.4 min 10% water+80% ACN+10% formic acid (0.1%); 8.4-8.5 min gradient up to 90% water+0% ACN+10% formic acid (0.1%), 8.5-10 min 90% water+0% ACN+10% formic acid (0.1%). Flow rate=0.3 mL/min. To quantify 2a-d generated from these precursors, a calibration curve of each individual cyclic urea with known concentrations was independently generated."}, "[2]": {"test": "Kinetics of decomposition of 7a and formation of 2a and 9 by UPLC-MS", "type": "physicochemical", "conditions": "7a 20 μM, HPE-IAM 1 mM, ammonium bicarbonate buffer 50 mM with DTPA", "description": "An aliquot of the reaction mixture was withdrawn at the specified time and quenched with 1% formic acid. The curves are the calculated best fits to a single-exponential function. The pseudo-first order rate constants for 7a, 9 and 2a are 0.59±0.02, 0.57±002, and 0.58±0.03 min^−1, respectively;"}, "H9c2 cells": {"test_system": "H9c2 cells", "test": "H9c2 cell protection from H2O2-mediated oxidative stress, SYTOX Green nucleic acid stain", "type": "cell-based, rat", "conditions": "2 h pretreatment (150 μM for 8), then H2O2 200 μM", "description": "Cells were seeded at a density of 1×10^4 cells/well. After 24 h, precursor 7b or byproduct 2b is added in 20 μL volumes using DMSO: H2O (<0.01% DMSO). Cells were incubated for 2 h before media was removed and the cells gently washed with PBS (pH 7.4). Then, 180 μL of fresh media and 20 μL H2O2 diluted in H2O were added before cells were incubated for an additional 1 h. After removing this media, 100 μL of media containing 3 μM SYTOX™ Green nucleic acid stain was added, and the cells incubated for 2 h before fluorescence readings were obtained at 485Ex/538Em (Step 1). Finally, an additional 100 μL of media containing 3 μM SYTOX™ and 0.2% Triton X-100 was added in order to permeabilize all cells and incubated for 1 h before fluorescence values measured (Step 2). The relative % cells surviving was calculated as a 100% minus the ratio of the fluorescence value of Step 1 over Step 2 (% cells surviving=100%−(FL538 (Step 1)/FL538 (Step 2)). Fluorescence values for vehicle-treated, non-H2O2-exposed wells were treated as background cell death and this value is added to the % cell survival for each subsequent group.\nSee Hofgaard et al., 2006, for general procedures. […] After removing this media, 100 μL of media containing 3 μM SYTOX® Green nucleic acid stain was added, and the cells incubated for 2 h before fluorescence readings were obtained at 485Ex/538Em (Step 1). […]"}}, "note": "Where “and” joins values, the source holds several entries; their conditions need not be identical. Equal entries are not always repeated.", "data": [{"compound": "3-(((3-acetamido-4-methoxy-2-methyl-4-oxobutan-2-yl)disulfannecarbonyl)(methyl)amino)-N-methylpropan-1-aminium [Precursor 7c]", "values": [{"measurement": "yield of cyclic urea byproduct", "setting": "[1]", "result": 88, "unit": "%"}, {"measurement": "cyclic urea byproduct formation", "setting": "[1]", "result": "8.8 ± 0.2", "unit": "µM"}]}, {"compound": "CNCCN(C)C(=O)SSC(C)(C)C(NC(C)=O)C(=O)OC", "note": "(centres unmarked) [Precursor 7a, 2-(((3-acetamido-4-methoxy-2-methyl-4-oxobutan-2-yl)disulfannecarbonyl)(methyl)amino)-N-methylethan-1-aminium]", "values": [{"measurement": "yield of cyclic urea byproduct", "setting": "[1]", "result": 87, "unit": "%"}, {"measurement": "cyclic urea byproduct formation", "setting": "[1]", "result": "8.7 ± 0.4", "unit": "µM"}, {"measurement": "pseudo-first order rate constant of RSS-HPE-AM 9 formation", "setting": "[2]", "result": "0.58 ± 0.02 min⁻¹ and 0.57 ± 002 min⁻¹"}, {"measurement": "pseudo-first order rate constant of byproduct 2a formation", "setting": "[2]", "result": "0.57 ± 0.02 min⁻¹ and 0.58 ± 0.03 min⁻¹"}, {"measurement": "pseudo-first order rate constant of precursor decomposition", "setting": "[2]", "result": "0.59 ± 0.02", "unit": "min⁻¹"}]}, {"compound": "COC(=O)C(NC(C)=O)C(C)(C)SSC(=O)N(C)CCN", "note": "(centres unmarked) [Precursor 7b, 2-(((3-acetamido-4-methoxy-2-methyl-4-oxobutan-2-yl)disulfannecarbonyl)(methyl)amino)ethan-1-aminium]", "values": [{"measurement": "protection against H2O2-mediated toxicity (SYTOX)", "setting": "H9c2 cells", "result": "protective effects"}]}]}
